From patent US11384078B2, “5,6-fused-bicyclic compounds and compositions for the treatment of parasitic diseases” (NOVARTIS AG, priority 2017, dated 2022) come the findings set out here.

Where two headings read alike, the source gives them in different places. A value given as a limit tells only on which side of the number the result lay.

Format in all cases: cell-based
The subject of assay [1] is Leishmania donovani axenic amastigote. The experiment in a line: In vitro assay for growth inhibition of Leishmania donovani axenic amastigote (Cell TiterGlo luminescence). The note with it: Leishmania donovani, L. donovani axenic amastigotes in vitro; read-out: L. donovani amastigotes EC50. The essentials:
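Axenic L. donovani amastigotes (9600/well) grown at 37 °C, 5% CO2 in supplemented RPMI 1640, pH 5.5, with compound added from DMSO. After two days, viability read by CellTiter-Glo luminescence against DMSO and control-compound wells.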

The subject of assay [2] is Trypanosoma brucei brucei (Lister 427) strain. The experiment in a line: Assay for growth inhibition against Trypanosoma brucei brucei (Cell TiterGlo ATP luminescence). The note with it: T. brucei brucei (Lister 427), read-out: T. Brucei (HAT) EC50. In a few lines:
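T. b. brucei Lister 427 grown in HMI-9 with 10% FBS and 10% serum plus, seeded at 10,000 parasites/mL with 10-point threefold compound dilutions in duplicate, 37 °C for 2 days. Viability read as ATP luminescence 30 min after Cell TiterGlo; IC50 versus untreated controls.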
In general terms: In ATP-based viability assays light output follows the ATP content of the culture.

For assay [3], the system named is Trypanosoma cruzi amastigotes cultured in 3T3 fibroblast cells. Nature of the assay: Assay for growth inhibition of kinetoplastid parasite Trypanosoma cruzi (beta-galactosidase Tulahuen strain, CPRG readout). The note with it: Trypanosoma cruzi, Fibroblast, T. cruzi amastigotes in 3T3 fibroblast cells; read-out: Buckner infectious T. cruzi EC50. In a few lines:
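3T3 fibroblasts (1,000 cells/well) plated overnight, treated with compound in DMSO, then infected with 10,000 Lac-Z-expressing Tulahuen trypomastigotes. After 6 days, 0.6 mM CPRG with 0.6% NP-40 added for 2 h at room temperature; absorbance gives relative intracellular amastigote numbers. Benznidazole and nifurtimox serve as positive controls.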

For assay [4], the system named is L. donovani HU3 strain in mouse peritoneal macrophages. The experiment in a line: Assay for inhibition of parasitemia of Leishmania donovani in mouse macrophages (SYBR Green nuclei count, high-content imaging). The note with it: Leishmania donovani, Peritoneal macrophage, L. donovani in mouse peritoneal macrophages; read-out: L. donovani in Mouse Macrophages EC50. In a few lines: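 Peritoneal macrophages from uninfected BALB/c mice were infected for 24 h with spleen-derived L. donovani HU3 (4×10^5 parasites per 2×10^4 macrophages), then cultured with compound for 5 days at 37° C, 5% CO2. After fixation and permeabilization, parasite nuclei were stained with SYBR Green and counted by high-content imaging.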

Usually EC50 stands for the midpoint of the concentration-response curve.

For the compound `CC(C)c1cnc2nn(-c3cc(NC(=O)c4ccccn4)ccc3F)cc2c1` [Compound 82, N-{4-fluoro-3-[5-(propan-2-yl)-2H-pyrazolo[3,4-b]pyridin-2-yl]phenyl}pyridine-2-carboxamide], the concentration giving a half-maximal response (EC50) in assay [1] was found to be 470 nM; in assay [2] (Trypanosoma brucei), 54 nM; in assay [3] it was 59 nM; in assay [4], 310 nM.
As to `O=C(Nc1ccc(F)c(-n2cc3cc(N4CCCC4)cnc3n2)c1)N1CCC1` [Compound 163, N-{4-fluoro-3-[5-(pyrrolidin-1-yl)-2H-pyrazolo[3,4-b]pyridin-2-yl]phenyl}azetidine-1-carboxamide], the concentration giving a half-maximal response (EC50) in assay [1] is 5.8 nM; in assay [2] (Trypanosoma brucei), < 23 nM; in assay [3], 2.7 nM; in assay [4] it was 4.1 nM.
Take `Cc1nc(C)c(C(=O)Nc2ccc(F)c(-n3cc4cc(-c5ccccn5)cnc4n3)c2)o1` [Compound 108, N-{4-fluoro-3-[5-(pyridin-2-yl)-2H-pyrazolo[3,4-b]pyridin-2-yl]phenyl}-2,4-dimethyl-1,3-oxazole-5-carboxamide]: the EC50 is 3.3 nM in assay [1], < 23 nM in assay [2] (Trypanosoma brucei), 3.8 nM in assay [3] and 4 nM in assay [4].
With `Cc1nc(C)c(C(=O)Nc2ccc(F)c(-n3cc4cc(N5CCC5)cnc4n3)c2)o1` [Compound 155, N-{3-[5-(azetidin-1-yl)-2H-pyrazolo[3,4-b]pyridin-2-yl]-4-fluorophenyl}-2,4-dimethyl-1,3-oxazole-5-carboxamide], the EC50 is 53 nM in assay [1], < 23 nM in assay [2] (Trypanosoma brucei), 18 nM in assay [3] and 22 nM in assay [4].
On the same counts, the results for `O=C(Nc1ccc(F)c(-n2cc3cc(C4CC4)cnc3n2)c1)N1CC(F)C1` [Compound 15, N-(3-{5-cyclopropyl-2H-pyrazolo[3,4-b]pyridin-2-yl}-4-fluorophenyl)-3-fluoroazetidine-1-carboxamide] are 13 nM, < 23 nM, 5 nM and 17 nM.
For `Cc1nc(COC(C)(C)C)oc1C(=O)Nc1ccc(F)c(-n2cc3cc(C(C)C)cnc3n2)c1` [Compound 79, 2-[(tert-butoxy)methyl]-N-{4-fluoro-3-[5-(propan-2-yl)-2H-pyrazolo[3,4-b]pyridin-2-yl]phenyl}-4-methyl-1,3-oxazole-5-carboxamide], the EC50 in assay [1] worked out at 3000 nM; in assay [2] (Trypanosoma brucei) it was 350 nM; in assay [3], 140 nM; in assay [4], 2400 nM.
On the same counts, the results for `O=C(Nc1ccc(F)c(-n2cc3cc(N4CC5(CCC5)C4)cnc3n2)c1)N1CC(F)C1` [Compound 243, N-[3-(5-{2-azaspiro[3.3]heptan-2-yl}-2H-pyrazolo[3,4-b]pyridin-2-yl)-4-fluorophenyl}-3-fluoroazetidine-1-carboxamide] are 2100 nM, 5 nM, 82 nM and 65 nM.
On the same counts, the results for `O=C(Nc1ccc(F)c(-n2cc3cc(N4CCC5(CC4)COC5)cnc3n2)c1)N1CC(F)C1` [Compound 248, 3-fluoro-N-[4-fluoro-3-(5-{2-oxa-7-azaspiro[3.5]nonan-7-yl}-2H-pyrazolo[3,4-b]pyridin-2-yl)phenyl]azetidine-1-carboxamide] are 117 nM, 5 nM, 11 nM and 8 nM.
Turning to `O=C(Nc1ccc(F)c(-n2cc3cc(-c4ncccc4F)cnc3n2)c1)N1CCC1` [Compound 313, N-{4-fluoro-3-[5-(3-fluoropyridin-2-yl)-2H-pyrazolo[3,4-b]pyridin-2-yl]phenyl}azetidine-1-carboxamide], the EC50 in assay [1] was 1 nM; in assay [2] (Trypanosoma brucei), 5 nM; in assay [3], 1 nM; in assay [4], 2 nM.
For the compound `O=C(Nc1ccc(F)c(-n2cc3cc(C4CCOCC4)cnc3n2)c1)N1CC(F)(F)C1` [Compound 165, 3,3-difluoro-N-{4-fluoro-3-[5-(oxan-4-yl)-2H-pyrazolo[3,4-b]pyridin-2-yl]phenyl}azetidine-1-carboxamide], the EC50 in assay [1] was 10 nM; in assay [2] (Trypanosoma brucei) it was < 23 nM; in assay [3] it was 40 nM; in assay [4] it was 10 nM.
Turning to `O=C(Nc1ccc(F)c(-n2cc3cc(N4CC(F)C4)cnc3n2)c1)N1CC(F)(F)C1` [Compound 303, 3,3-difluoro-N-{4-fluoro-3-[5-(3-fluoroazetidin-1-yl)-2H-pyrazolo[3,4-b]pyridin-2-yl]phenyl}azetidine-1-carboxamide], the EC50 came to 490 nM in assay [1], 5 nM in assay [2] (Trypanosoma brucei), 10 nM in assay [3] and 15 nM in assay [4].
For `Cc1cccnc1-c1cnc2nn(-c3cc(NC(=O)C4=CC(C)(C)C4)ccc3F)cc2c1` [Compound 350, N-{4-fluoro-3-[5-(3-methylpyridin-2-yl)-2H-pyrazolo[3,4-b]pyridin-2-yl]phenyl}-3,3-dimethylcyclobut-1-ene-1-carboxamide], the EC50 in assay [1] is 16 nM; in assay [2] (Trypanosoma brucei), 28 nM; in assay [3] it was 16 nM; in assay [4], 58 nM.
Regarding `CC(C)c1cnc2nn(-c3cc(NC(=O)c4cc(Cl)ccc4F)ccc3F)cc2c1` [Compound 89, 5-chloro-2-fluoro-N-{4-fluoro-3-[5-(propan-2-yl)-2H-pyrazolo[3,4-b]pyridin-2-yl]phenyl}benzamide], the half-maximal effective concentration (EC50) is 470 nM in assay [1], 33 nM in assay [2] (Trypanosoma brucei), 32 nM in assay [3] and 270 nM in assay [4].
`O=C(Nc1ccc(F)c(-n2cc3cc(N4CC(F)C4)cnc3n2)c1)N1CC(F)C1` [Compound 291, 3-fluoro-N-{4-fluoro-3-[5-(3-fluoroazetidin-1-yl)-2H-pyrazolo[3,4-b]pyridin-2-yl]phenyl}azetidine-1-carboxamide]: the 50% effective concentration (EC50) in assay [1] is 10 nM; in assay [2], 5 nM; in assay [3], 5 nM; in assay [4], 5 nM.
Turning to `O=C(Nc1ccc(F)c(-n2cc3cc(N4CCOCC4)cnc3n2)c1)N1CC(F)C1` [Compound 132, 3-fluoro-N-{4-fluoro-3-[5-(morpholin-4-yl)-2H-pyrazolo[3,4-b]pyridin-2-yl]phenyl}azetidine-1-carboxamide], the 50% effective concentration (EC50) in assay [1] is 11 nM; in assay [2] (Trypanosoma brucei) it was < 23 nM; in assay [3], 13 nM; in assay [4], 7 nM.
On to `Cc1nc(C)c(C(=O)Nc2ccc(F)c(-n3cc4cc(CCC(C)C)cnc4n3)c2)o1` [Compound 107, N-{4-fluoro-3-[5-(3-methylbutyl)-2H-pyrazolo[3,4-b]pyridin-2-yl]phenyl}-2,4-dimethyl-1,3-oxazole-5-carboxamide], for which the half-maximal effective concentration (EC50) in assay [1] is 220 nM; in assay [2] (Trypanosoma brucei), 88 nM; in assay [3] it was 77 nM; in assay [4] it was 130 nM.
For `CC(C)(C)Cc1cnc2nn(-c3cc(NC(=O)N4CC[C@@H](F)C4)ccc3F)cc2c1` [Compound 46, (3R)-N-{3-[5-(2,2-dimethylpropyl)-2H-pyrazolo[3,4-b]pyridin-2-yl]-4-fluorophenyl}-3-fluoropyrrolidine-1-carboxamide], the concentration giving a half-maximal response (EC50) is 8.4 nM in assay [1], < 23 nM in assay [2] (Trypanosoma brucei), 1.7 nM in assay [3] and 3.5 nM in assay [4].
